Experimental data as given in BigSolDB 2.1.

COc1cc([N+](=O)[O-])ccc1N
solubility (mole fraction)
Conditions | 278.15 K | 283.15 K | 288.15 K | 293.15 K | 298.15 K | 303.15 K | 308.15 K | 313.15 K | 318.15 K | 323.15 K
in isopropanol | 0.00186 | 0.00221 | 0.00265 | 0.00322 | 0.00396 | 0.00492 | 0.00595 | 0.00719 | 0.00855 | 0.0101
in water | 4.03e-06 | 5.68e-06 | 7.36e-06 | 9.49e-06 | 1.27e-05 | 1.74e-05 | 2.36e-05 | 3.15e-05 | 4.23e-05 | 5.49e-05
